The values that follow are results of earlier work, collected in patent US20200315965A1, “NANOEMULSION CONCENTRATE FORMULATIONS AND METHODS” (priority 2019, published 2020).

The conditions of this series: water.

As to `CCCCCc1cc(O)c2c(c1)OC(C)(C)[C@@H]1CCC(C)=C[C@@H]21` [THC, tetrahydrocannabinol], the aqueous solubility was roughly 0.003 milligrams per milliliter.
